Measured values taken from ChEMBL document CHEMBL3813674 (Medchemcomm, 2016).
Values after ≈ are worked out from the molar mass of the structure shown.

Key:
Format in all cases: physicochemical
[1] = Solubility of the compound in ChCl-P solvent at HBA:HBD 1:2 molar ratio and 37 degC measured after 24 hrs by HPLC analysis
[2] = Solubility of the compound in ChCl-G solvent at 37 degC measured after 24 hrs by HPLC analysis
[3] = Solubility of the compound in ChCl-EG solvent at 37 degC measured after 24 hrs by HPLC analysis
[4] = Solubility of the compound in ChCl-GA1 solvent at 37 degC measured after 24 hrs by HPLC analysis
[5] = Solubility of the compound in ChCl-GA2 solvent at 37 degC measured after 24 hrs by HPLC analysis
[6] = Solubility of the compound in ChCl-MA1 solvent at 37 degC measured after 24 hrs by HPLC analysis
[7] = Solubility of the compound in ChCl-OA solvent at 37 degC measured after 24 hrs by HPLC analysis
[8] = Solubility of the compound in ChCl-LA1 solvent at 37 degC measured after 24 hrs by HPLC analysis
[9] = Solubility of the compound in ChCl-LA2 solvent at 37 degC measured after 24 hrs by HPLC analysis
[10] = Solubility of the compound in ChCl-U solvent at 37 degC measured after 24 hrs by HPLC analysis
[11] = Solubility of the compound in EAC-EG solvent at 37 degC measured after 24 hrs by HPLC analysis
[12] = Solubility of the compound in EAC-P solvent at 37 degC measured after 24 hrs by HPLC analysis
[13] = Solubility of the compound in EAC-LA2 solvent at 37 degC measured after 24 hrs by HPLC analysis
[14] = Solubility of the compound in TPAB-P solvent at 37 degC measured after 24 hrs by HPLC analysis
[15] = Solubility of the compound in TPAB-LA1 solvent at 37 degC measured after 24 hrs by HPLC analysis
[16] = Solubility of the compound in BE-LA1 solvent at 37 degC measured after 24 hrs by HPLC analysis
[17] = Solubility of the compound in ChBt-LA1 solvent at 37 degC measured after 24 hrs by HPLC analysis
[18] = Solubility of the compound in water at 37 degC measured after 24 hrs by HPLC analysis; conditions: for solubility at 24 h: water
[19] = Solubility of the compound in ChCl-P solvent at HBA:HBD 1:3 molar ratio and 37 degC measured after 24 hrs by HPLC analysis
[20] = Solubility of the compound in ChCl-P solvent at HBA:HBD 1:4 molar ratio and 37 degC measured after 24 hrs by HPLC analysis
[21] = Solubility of the compound in ChCl-P solvent at HBA:HBD 1:5 molar ratio and 37 degC measured after 24 hrs by HPLC analysis
[22] = Solubility of the compound in 1,2-propanediol at 37 degC measured after 24 hrs by HPLC analysis
[23] = Solubility of the compound in ChCl-LA1 solvent at HBA:HBD 1:2 molar ratio and 37 degC measured after 24 hrs by HPLC analysis
[24] = Solubility of the compound in ChCl-LA1 solvent at HBA:HBD 1:3 molar ratio and 37 degC measured after 24 hrs by HPLC analysis
[25] = Solubility of the compound in ChCl-LA1 solvent at HBA:HBD 1:4 molar ratio and 37 degC measured after 24 hrs by HPLC analysis
[26] = Solubility of the compound in ChCl-LA1 solvent at HBA:HBD 1:5 molar ratio and 37 degC measured after 24 hrs by HPLC analysis
[27] = Solubility of the compound in levulinic acid at 37 degC measured after 24 hrs by HPLC analysis
[28] = Half life of the compound at optimal pH
[29] = Ratio of half life of compound in ChCl-P solvent to half life of compound in water; conditions: buffer
[30] = Half life of compound in ChCl-P solvent at 2.5 mg by HPLC method
[31] = Half life of compound in water at 2.5 mg by HPLC method

solubility [1] [mg/mL] | solubility [2] [mg/mL] | solubility [3] [mg/mL] | solubility [4] [mg/mL] | solubility [5] [mg/mL] | solubility [6] [mg/mL] | solubility [7] [mg/mL] | solubility [8] [mg/mL] | solubility [9] [mg/mL] | solubility [10] [mg/mL] | solubility [11] [mg/mL] | solubility [12] [mg/mL] | solubility [13] [mg/mL] | solubility [14] [mg/mL] | solubility [15] [mg/mL] | solubility [16] [mg/mL] | solubility [17] [mg/mL] | solubility [19] [mg/mL] | solubility [20] [mg/mL] | solubility [21] [mg/mL] | Structure (SMILES) | further results
324 | 140.3 (≈ 928 mM) | 287 (≈ 1900 mM) | 238.1 (≈ 1580 mM) | 224.8 (≈ 1490 mM) | 266.3 (≈ 1760 mM) | 186.7 (≈ 1240 mM) | 279 (≈ 1850 mM) | 254 (≈ 1680 mM) | 169.7 (≈ 1120 mM) | 173.9 (≈ 1150 mM) | 188.6 (≈ 1250 mM) | 141.2 (≈ 934 mM) | 352.7 (≈ 2330 mM) | 316.5 (≈ 2090 mM) | 212.1 (≈ 1400 mM) | 89.07 (≈ 589 mM) | 324 | 267.9 | 246.2 | CC(=O)Nc1ccc(O)cc1 [ACETAMINOPHEN] | solubility at 24 h [18]: 19.9 mg/mL (≈ 132 mM); solubility [22]: 235.1 mg/mL (≈ 1560 mM); solubility [23]: 279 mg/mL; solubility [24]: 217.4 mg/mL; solubility [25]: 208.4 mg/mL; solubility [26]: 199.8 mg/mL; solubility [27]: 144.5 mg/mL (≈ 956 mM)
202 | 42.48 (≈ 236 mM) | 139 (≈ 772 mM) | 76.28 (≈ 423 mM) | 67.43 (≈ 374 mM) | 126.3 (≈ 701 mM) | 86.32 (≈ 479 mM) | 135 (≈ 749 mM) | 91.3 (≈ 507 mM) | 147.9 (≈ 821 mM) | 56.84 (≈ 315 mM) | 82.18 (≈ 456 mM) | 44.57 (≈ 247 mM) | 220.2 (≈ 1220 mM) | 163.7 (≈ 909 mM) | 149.8 (≈ 831 mM) | 37.06 (≈ 206 mM) | 184.6 | 179.2 | 168.7 | CC(=O)Oc1ccccc1C(=O)O [ASPIRIN] | solubility ([18]; buffer, 24 h): 3.3 mg/mL (≈ 18.3 mM); solubility [22]: 134.3 mg/mL (≈ 745 mM); solubility [23]: 135 mg/mL; solubility [24]: 113.1 mg/mL; solubility [25]: 109.9 mg/mL; solubility [26]: 104.4 mg/mL; solubility [27]: 95.63 mg/mL (≈ 531 mM); half-life [28]: < 336 h; Ratio [29]: 8.2; half-life [30]: 17.5 h; half-life [31]: 2.13 h

Structure (SMILES) | solubility [1] [mg/mL] | solubility [2] [mg/mL] | solubility [3] [mg/mL] | solubility [4] [mg/mL] | solubility [5] [mg/mL] | solubility [6] [mg/mL] | solubility [7] [mg/mL] | solubility [8] [mg/mL] | solubility [9] [mg/mL] | solubility [10] [mg/mL] | solubility [11] [mg/mL] | solubility [12] [mg/mL] | solubility [13] [mg/mL] | solubility [14] [mg/mL] | solubility [15] [mg/mL] | solubility [16] [mg/mL] | solubility [17] [mg/mL] | solubility [19] [mg/mL] | solubility [20] [mg/mL] | solubility [21] [mg/mL] | further results
CC(C)Cc1ccc(C(C)C(=O)O)cc1 (stereo unspecified) [IBUPROFEN] | 183.3 | 3.82 (≈ 18.5 mM) | 24.29 (≈ 118 mM) | 25.38 (≈ 123 mM) | 9.49 (≈ 46 mM) | 25.87 (≈ 125 mM) | 31.51 (≈ 153 mM) | 78.69 (≈ 381 mM) | 17.95 (≈ 87 mM) | 4.5 (≈ 21.8 mM) | 21.42 (≈ 104 mM) | 141.6 (≈ 686 mM) | 20.67 (≈ 100 mM) | 383.4 (≈ 1860 mM) | 194.8 (≈ 944 mM) | 280.2 (≈ 1360 mM) | 35.05 (≈ 170 mM) | 191.7 | 226.1 | 267.6 | solubility at 24 h [18]: 0.07 mg/mL (≈ 0.339 mM); solubility [22]: 380 mg/mL (≈ 1840 mM); solubility [27]: 159.4 mg/mL (≈ 773 mM)
